Results on 21 compounds are retold here after ChEMBL document CHEMBL1201862, “PubChem BioAssay data set” (2004).

Among the test systems are HOP-18; DLD-1; DMS-273; M19-MEL; KM-20L2; XF498; LXFL 529; SNB-78; RXF 631.
Assay in all cases: NCI tumour cell line growth inhibition, 48 h

SMILES strings stand for the structures.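 Test compounds were applied to cells in 96-well plates for 48 hours at 5 doses. GI50 is the concentration that inhibits growth by half.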 The source made the active and inactive calls. Rule as the data show it: active = GI50 up to about 1.1 µM and inactive = higher.

With `O=C(O)c1ccccc1/N=N/c1ccc2oc(=O)c(C(=O)Nc3ccccc3)cc2c1`, the GI50 was 30.1 µM (inactive) in the experiment with HOP-18; 40.9 µM (inactive) in the experiment with DLD-1; 39 µM (inactive) with DMS-273; 33.3 µM (inactive) in the experiment with M19-MEL; 24.8 µM (inactive) with KM-20L2; 45.8 µM (inactive) in the experiment with XF498.

Consider `COc1cc(O)c2c(c1)C(=O)C1=C(C2=O)C(O)C[C@@](C)(O)C1` (stereo partly specified), for which the GI50 in the experiment with LXFL 529 was 0.582 µM (active); with DLD-1 it was 0.229 µM (active); in the experiment on DMS-273, 1.57 µM (inactive); with M19-MEL, 0.452 µM (active); with KM-20L2, 3.36 µM (inactive); in the experiment on SNB-78, 1.9 µM (inactive). For the same compound, the GI50 in the experiment on XF498 is 1.9 µM (inactive).

In the case of `Cc1c2n(c(=O)[nH]c1=O)C1OC(CO)C(O2)C1O` (stereo unspecified), the GI50 in the experiment with LXFL 529, in the experiment with DLD-1, with DMS-273, in the experiment on M19-MEL, in the experiment with KM-20L2 and in the experiment with SNB-78 was > 100 µM (inactive) each time.

For `Cc1c(C(=O)/C=C/c2c(Cl)cccc2Cl)c(=O)n(-c2ccccc2)n1C`, the GI50 in the experiment on LXFL 529 was 5.47 µM (inactive); with DMS-273, 4.82 µM (inactive); with M19-MEL, 8.55 µM (inactive); in the experiment with KM-20L2, 19.6 µM (inactive); with SNB-78 it was 6.24 µM (inactive); in the experiment with XF498, 19.6 µM (inactive).

Consider `CCC(CC)NC1=C(NC(C)=O)C(=O)c2ccccc2C1=O`, for which the GI50 in the experiment with LXFL 529, in the experiment with DLD-1, in the experiment with DMS-273, in the experiment with M19-MEL, in the experiment with KM-20L2 and in the experiment with SNB-78 was > 50 µM (inactive) each time. Also, the GI50 with XF498 is > 50 µM (inactive).

On to `COC(=O)C(/C(=N/N)C(=O)Nc1cc(Cl)ccc1Cl)c1nc2ccc([N+](=O)[O-])cc2nc1O` (stereo unspecified), for which the GI50 in the experiment with LXFL 529 was 48 µM (inactive); in the experiment with DMS-273, 57.3 µM (inactive); in the experiment on KM-20L2 it was 49.9 µM (inactive); with SNB-78, > 100 µM (inactive); in the experiment on XF498, > 100 µM (inactive).

As to `COC(=O)Cc1cc(=O)oc2c1C(=O)CCC2`, the GI50 in the experiment with LXFL 529, in the experiment with DLD-1, in the experiment on DMS-273, with M19-MEL, in the experiment with KM-20L2 and with SNB-78 was > 100 µM (inactive) in each case. The GI50 in the experiment with XF498 was > 100 µM (inactive).

As to `COC1(OC)C(N(C)C)=C(Cl)C(=O)/C1=C/C=O`, the GI50 with LXFL 529 is > 100 µM (inactive); in the experiment on HOP-18, > 100 µM (inactive); with DLD-1, > 100 µM (inactive); with DMS-273, > 100 µM (inactive); with M19-MEL it was 74.6 µM (inactive); in the experiment on KM-20L2, > 100 µM (inactive).

As for `C[S+](C)CCOC(=O)C(=[N+]=[N-])c1ccc([N+](=O)[O-])cc1`, the GI50 in the experiment with LXFL 529, in the experiment with RXF 631, in the experiment with HOP-18, in the experiment with DMS-273, in the experiment on M19-MEL and with KM-20L2 was > 100 µM (inactive) throughout. Moreover, the GI50 with SNB-78 and in the experiment with XF498 was > 100 µM (inactive) each time.

Regarding `C=CNC(=O)NC(=O)CSc1nc(=O)c(-c2ccccc2NC(=O)C(F)(F)F)n[nH]1`, the GI50 was > 100 µM (inactive) in the experiment with LXFL 529; 2.81 µM (inactive) in the experiment on DLD-1; 43.9 µM (inactive) with DMS-273; > 100 µM (inactive) in the experiment with M19-MEL; 25.2 µM (inactive) in the experiment on SNB-78; 33.9 µM (inactive) in the experiment on XF498.

Turning to `CC(C)C1CCC/C=C/C=C/C=C/C=C/C(OC2OC(C)C(O)C(N)C2O)CC2OC(O)(CC(O)CC(O)C(O)CCC(=O)O1)CC(O)C2C(=O)O` (stereo unspecified), the GI50 with LXFL 529, with HOP-18, with M19-MEL, in the experiment with KM-20L2 and with SNB-78 was > 52.5 µM (inactive) throughout.

As for `Cc1ccc2c(C)c3ccc4ccccc4c3c[n+]2c1.[O-][Cl+3]([O-])([O-])[O-]`, the GI50 was 9.1 µM (inactive) in the experiment on LXFL 529; 12.4 µM (inactive) with HOP-18; 37.8 µM (inactive) with DLD-1; 11.5 µM (inactive) with DMS-273; 4.88 µM (inactive) in the experiment on M19-MEL; 33.3 µM (inactive) in the experiment with KM-20L2. Also, the GI50 in the experiment on SNB-78 is 41.4 µM (inactive).

As to `O=C1NC2C(=CC(O)C(O)C2O)c2cc3c(cc21)OCO3` (stereo unspecified), the GI50 in the experiment on LXFL 529 is 0.43 µM (active); in the experiment with RXF 631, 0.433 µM (active); with HOP-18, 1.48 µM (inactive); in the experiment with DLD-1, 0.255 µM (active); with DMS-273, 0.436 µM (active); in the experiment on M19-MEL, 0.251 µM (active). Besides, the GI50 with KM-20L2 was 0.305 µM (active); in the experiment with SNB-78, 0.569 µM (active); in the experiment with XF498, 0.171 µM (active).

Regarding `CC(C)(C)c1cc(C(P(=O)(O)O)P(=O)(O)O)cc(C(C)(C)C)c1O`, the GI50 in the experiment with LXFL 529, in the experiment with HOP-18, in the experiment on DLD-1, in the experiment on DMS-273, with M19-MEL and in the experiment on KM-20L2 was > 100 µM (inactive) each time. In the experiment with SNB-78, the GI50 is > 100 µM (inactive).

Regarding `CCOC(=O)c1nc2ccc(Cl)cc2c2c1CCO2`, the GI50 with LXFL 529 is 51.4 µM (inactive); in the experiment on HOP-18, 23.6 µM (inactive); in the experiment with DLD-1 it was > 100 µM (inactive); in the experiment with DMS-273 it was > 100 µM (inactive); in the experiment on M19-MEL it was > 100 µM (inactive); in the experiment with KM-20L2 it was > 100 µM (inactive). Moreover, the GI50 with SNB-78 was > 100 µM (inactive); in the experiment with XF498, 72.8 µM (inactive).

Take `COC1OC(C)C(O)CC1OS(=O)(=O)c1ccc(C)cc1` (stereo unspecified): the GI50 in the experiment with LXFL 529, in the experiment with HOP-18, in the experiment with DMS-273, with M19-MEL, in the experiment on KM-20L2 and with SNB-78 was > 100 µM (inactive) throughout.

Turning to `CC1=C(C(=O)Nc2cccc(C(F)(F)F)c2)C(c2ccc(O)cc2)C(C(=O)Nc2cccc(C(F)(F)F)c2)=C(C)N1`, the GI50 is 18.6 µM (inactive) in the experiment on LXFL 529; 14.8 µM (inactive) in the experiment on RXF 631; 20.5 µM (inactive) with DLD-1; 16.4 µM (inactive) with M19-MEL; 18.3 µM (inactive) with KM-20L2; 23 µM (inactive) in the experiment on SNB-78. Further, the GI50 with XF498 is 2.61 µM (inactive).

In the case of `Cc1ccccc1-c1c(N)nc(NC#N)nc1C(=O)Nc1ccccc1`, the GI50 in the experiment with LXFL 529 is 67.1 µM (inactive); in the experiment with RXF 631, > 100 µM (inactive); in the experiment on HOP-18, > 100 µM (inactive); in the experiment on DLD-1, > 100 µM (inactive); with DMS-273 it was > 100 µM (inactive); in the experiment on M19-MEL it was > 100 µM (inactive). The GI50 in the experiment with KM-20L2 and with SNB-78 was > 100 µM (inactive) each time.

As to `CC(=O)C1C(=O)N(C(C)C)C[C@@H]2CCC(=O)C[C@H]12` (stereo partly specified), the GI50 with LXFL 529, in the experiment on RXF 631, with DLD-1, in the experiment on DMS-273, in the experiment on M19-MEL and in the experiment on SNB-78 was > 100 µM (inactive) throughout. In the experiment on XF498, the GI50 was > 100 µM (inactive).

Take `O=C(c1ccc(Cl)cc1)N(C(=S)N1CCN(c2ccccn2)CC1)C1CCCCC1`: the GI50 was 75.7 µM (inactive) in the experiment on LXFL 529; > 100 µM (inactive) in the experiment on HOP-18; 81.7 µM (inactive) in the experiment on DLD-1; 34.3 µM (inactive) in the experiment on DMS-273; > 100 µM (inactive) in the experiment on M19-MEL; 74.1 µM (inactive) with KM-20L2. Further, the figures for the GI50 with SNB-78 and in the experiment on XF498 were > 100 µM (inactive) and 8.26 µM (inactive), respectively.

Consider `N#Cc1ccc(/C=N/C23CC4CC(CC(C4)C2)C3)cc1`, for which the GI50 in the experiment with RXF 631 was 32.5 µM (inactive); in the experiment with DMS-273, 98.2 µM (inactive); in the experiment with M19-MEL, > 100 µM (inactive); in the experiment on KM-20L2, > 100 µM (inactive); in the experiment with SNB-78 it was > 100 µM (inactive).
